Consider 7 molecules from patent publication US4308380A, “2-Lower alkyl-2 or 3-cephem-4-carboxylic acid derivatives” (Fujisawa Pharmaceutical Co., Ltd., priority 1973, dated 1981).

In test [1] the test system is Staphylococcus aureus 209 P JC-1. The test is described as follows: in vitro antimicrobial activity, two-fold agar-plate dilution method, S. aureus 209 P JC-1. Format: cell-based. To be noted: read-out: minimum inhibitory concentration (MIC). As to the method: (§1) In vitro antimicrobial activity was determined by the two-fold agar-plate dilution method as described below.
(§2) One loopful of an overnight culture of each test strain in Trypticase-soy broth (10^8 viable cells per ml) was streaked on heart infusion agar (HI-agar) containing graded concentration of antibiotics, and the minimum inhibitory concentration (MIC) was expressed in terms of meg/ml after incubation at 37° C. for 20 hours.
(§3) The data in Table 1 below present a comparison between the 2-(C1 -C6 alkyl)-cephem compounds of the present invention and known cephem compounds structurally analogous to the present compounds, differing only by alkyl substitution in the 3-position. The in vitro tests of antimicrobial activity of the compared compounds were determined by the two-fold agar plate dilution method described as follows:
(§4) One loopful of an overnight culture of each test strain in Trypticase-soy broth (10^8 viable cells per ml) was streaked on heart infusion agar (HI sugar) containing graded concentration of antibiotics, and the minimum inhibitory concentration (MIC) was expressed in terms of mcg/ml after incubation at 37° C. for 20 hours.

Test [2] concerns Staphylococcus aureus 206. The test is described as follows: in vitro antimicrobial activity, two-fold agar plate dilution method, S. aureus 206. Format: cell-based. The settings on record: Table 1, S. aureus 206, 37° C., 20 hours, read-out: minimum inhibitory concentration (MIC). The method, then:
(§5) The in vitro tests of antimicrobial activity of the compared compounds were determined by the two-fold agar plate dilution method described as follows: […]

Test [3] deals with Staphylococcus aureus 213. Description: in vitro antimicrobial activity, two-fold agar plate dilution method, S. aureus 213. The format is cell-based. The settings on record: Table 1, S. aureus 213, 37° C., 20 hours, read-out: minimum inhibitory concentration (MIC). As to the method: as §5
For test [4], the system named is Staphylococcus aureus 226. Description: in vitro antimicrobial activity, two-fold agar plate dilution method, S. aureus 226. Format: cell-based. To be noted: Table 1, S. aureus 226, 37° C., 20 hours, read-out: minimum inhibitory concentration (MIC). As to the method:
as §5

Test [5] relates to Staphylococcus aureus 277. Description: in vitro antimicrobial activity, two-fold agar plate dilution method, S. aureus 277. The settings on record: Table 1, S. aureus 277, 37° C., 20 hours, read-out: minimum inhibitory concentration (MIC). The format is cell-based. The method, then: as §5
In test [6] the test system is Staphylococcus aureus 278. The test is described as follows: in vitro antimicrobial activity, two-fold agar plate dilution method, S. aureus 278. Format: cell-based. The settings on record: Table 1, S. aureus 278, 37° C., 20 hours, read-out: minimum inhibitory concentration (MIC). As to the method:
as §5

Test [7] deals with Bacillus subtilis ATCC-6633. Description: in vitro antimicrobial activity, two-fold agar-plate dilution method, B. subtilis ATCC-6633. The format is cell-based. The settings on record: read-out: minimum inhibitory concentration (MIC). The method, then: as §1, §2, §3, §4
For test [8], the system named is E. coli 327. The test is described as follows: in vitro MIC against E. coli 327 at different inoculum sizes (Table 2). Format: cell-based.
In test [9] the test system is E. coli 327. The test is described as follows: protecting effect against experimental infections in mice. The format is in vivo, mice (male ICR strain). To be noted: E. coli 327, intraperitoneal inoculation 8.5×10^2 cells/mouse, subcutaneous one hour after challenge, survival after one week, probit method. As to the method:
The following test describes the method of estimating the protecting effects of Applicants' compound (18) versus cited […], "Keflex", against experimental infections in mice.
Male ICR strain mice aged 4 weeks, each weighing 20-23 g were used in groups of 8 mice. The organisms precultured overnight at 37° C. on HI-agar were suspended in 5% mucin solution to obtain cell concentrations of 8.5×10^2 cells/mouse. Mice were inoculated intraperitoneally with 0.5 ml of the suspension. Each of the test antibiotics was given subcutaneously to the mice one hour after challenge. The ED50 values were found by the probit method from the number of surviving mice after one week of observation.

Where [10] appears, read: 209PJC1, Table 1, S. aureus 209 P JC-1, 37° C., 20 hours.
The mark [11] stands for this setting: ATCC6633, Table 1, B. subtilis ATCC-6633, 37° C., 20 hours.
Setting [12] is: Escherichia coli, 327, E. coli 327, inoculum size 10^4.
Setting [13] is: Escherichia coli, 327, E. coli 327, inoculum size 10^6.
Where [14] appears, read: Escherichia coli, 327, E. coli 327, inoculum size 10^8.

In brackets after ≈: the same amount, converted by molar mass. Like-named read-outs stand apart in the source and are kept apart here.

In the case of `CC1C=C(C(=O)O)N2C(=O)C(NC(=O)C(N)c3ccccc3)C2S1` (stereo not drawn) [Applicants' compound (18), 2-Methyl-7-(2-phenylglycyl)-amino-3-cephem-4-carboxylic acid], the MIC turned out to be 6.25 µg/mL (≈ 18 µM) in test [1] (setting [10]); 12.5 µg/mL (≈ 36 µM) in test [2]; 50 µg/mL (≈ 144 µM) in [3]; 25 µg/mL (≈ 72 µM) in test [4]; 12.5 µg/mL (≈ 36 µM) in test [5]; 25 µg/mL (≈ 72 µM) in test [6]. Further, the MIC is 1.56 µg/mL (≈ 4.49 µM) in test [7] (setting [11]), 12.5 µg/mL (≈ 36 µM) against E. coli 327 [8] (setting [12]), 50 µg/mL (≈ 144 µM) against E. coli 327 [8] (setting [13]) and 100 µg/mL (≈ 288 µM) against E. coli 327 [8] (setting [14]). For the same molecule, the ED50 with E. coli 327 [9] was 0.25 mg/mouse.
In the case of `CC1=C(C(=O)O)N2C(=O)C(NC(=O)CSc3nncs3)[C@H]2SC1` (stereo partly drawn) [cited compound (11), 3-Methyl-7-[2-(1,3,4-thiadiazol-2-ylthio)acetamido]-3-cephem-4-carboxylic acid, reference compound], the MIC is 3.13 µg/mL (≈ 8.4 µM) in test [1] (setting [10]); 3.13 µg/mL (≈ 8.4 µM) in test [2]; 6.25 µg/mL (≈ 16.8 µM) in [3]; 6.25 µg/mL (≈ 16.8 µM) in test [4]; 6.25 µg/mL (≈ 16.8 µM) in [5]; 3.13 µg/mL (≈ 8.4 µM) in test [6]. Moreover, the MIC in [7] (setting [11]) was 1.56 µg/mL (≈ 4.19 µM).
Turning to `CC1=C(C(=O)O)N2C(=O)C(NC(=O)Cc3cnsn3)[C@H]2SC1` (stereo partly drawn) [cited compound (12), 3-Methyl-7-[2-(1,2,5-thiadiazol-3-yl)acetamido]-3-cephem-4-carboxylic acid, reference compound], the MIC came to 12.5 µg/mL (≈ 36.7 µM) in test [1] (setting [10]); 12.5 µg/mL (≈ 36.7 µM) in test [2]; 25 µg/mL (≈ 73.4 µM) in test [3]; 25 µg/mL (≈ 73.4 µM) in [4]; 25 µg/mL (≈ 73.4 µM) in [5]; 25 µg/mL (≈ 73.4 µM) in [6]. For the same molecule, in [7] (setting [11]), the MIC came out at 3.13 µg/mL (≈ 9.2 µM).
Consider `CC1=C(C(=O)O)N2C(=O)C(NC(=O)CC#N)[C@H]2SC1` (stereo partly drawn) [cited compound (13), 3-Methyl-7-(2-cyanoacetamido)-3-cephem-4-carboxylic acid, reference compound], for which the MIC in [1] (setting [10]) stood at 6.25 µg/mL (≈ 22.2 µM); in [2] it was 6.25 µg/mL (≈ 22.2 µM); in test [3], 12.5 µg/mL (≈ 44.4 µM); in test [4], 12.5 µg/mL (≈ 44.4 µM); in test [5], 12.5 µg/mL (≈ 44.4 µM); in test [6], 12.5 µg/mL (≈ 44.4 µM). For the same molecule, the MIC in [7] (setting [11]) came to 3.13 µg/mL (≈ 11.1 µM).
`C=CCSCC(=O)NC1C(=O)N2C(C(=O)O)=C(C)CS[C@H]12` (stereo partly drawn) [cited compound (14), 3-Methyl-7-[2-(allylthio)acetamido]-3-cephem-4-carboxylic acid, reference compound]: the MIC in [1] (setting [10]) came out at 6.25 µg/mL (≈ 19 µM); in test [2], 6.25 µg/mL (≈ 19 µM); in [3], 12.5 µg/mL (≈ 38.1 µM); in test [4], 6.25 µg/mL (≈ 19 µM); in test [5] it was 6.25 µg/mL (≈ 19 µM); in test [6] it was 6.25 µg/mL (≈ 19 µM). For the same molecule, the MIC in [7] (setting [11]) was 3.13 µg/mL (≈ 9.53 µM).
In the case of `CC1=C(C(=O)O)N2C(=O)C(NC(=O)Cc3cccnc3)[C@H]2SC1` (stereo partly drawn) [cited compound (15), 3-Methyl-7-[2-(3-pyridyl)acetamido]-3-cephem-4-carboxylic acid, reference compound], the MIC in [1] (setting [10]) was determined as 6.25 µg/mL (≈ 18.7 µM); in test [2], 12.5 µg/mL (≈ 37.5 µM); in test [3], 25 µg/mL (≈ 75 µM); in test [4] it was 12.5 µg/mL (≈ 37.5 µM); in test [5], 6.25 µg/mL (≈ 18.7 µM); in test [6], 12.5 µg/mL (≈ 37.5 µM). In addition, the MIC in test [7] (setting [11]) was determined as 1.56 µg/mL (≈ 4.68 µM).
For `CC1=C(C(=O)O)N2C(=O)C(NC(=O)C(N)c3ccccc3)[C@H]2SC1` (stereo partly drawn) [cited compound (18), 3-Methyl-7-(2-phenylglycyl)amino-3-cephem-4-carboxylic acid, reference compound], the MIC in test [1] (209PJC1, 20 h) came out at 3.13 µg/mL (≈ 9.01 µM); in [2], 6.25 µg/mL (≈ 18 µM); in test [3], 12.5 µg/mL (≈ 36 µM); in [4] it was 12.5 µg/mL (≈ 36 µM); in [5] it was 3.13 µg/mL (≈ 9.01 µM); in test [6], 3.13 µg/mL (≈ 9.01 µM). The MIC in [7] (ATCC6633, 20 h) came out at 1.56 µg/mL (≈ 4.49 µM); against E. coli 327 [8] (setting [12]), 6.25 µg/mL (≈ 18 µM); in the test on E. coli 327 [8] (setting [13]), 12.5 µg/mL (≈ 36 µM); in the test with E. coli 327 [8] (setting [14]), 100 µg/mL (≈ 288 µM). Also, the ED50 in the test on E. coli 327 [9] is on record as 1.06 mg/mouse.
